The test deals with mouse hindlimb muscles. The test is described as follows: In vivo muscle regeneration after cardiotoxin injury. The note with it: mice, oral gavage 100 mg/kg body weight once a day from one week before cardiotoxin injury; muscles harvested 5 days after the injury; vs. water control. As for the experimental part:
Early phase of expansion and subsequent phase of myogenic differentiation of Muscle Stem Cells were evaluated by counting the number of Pax7+ cells (A) and myogenin+ cells (B), respectively. Data are expressed as number of cells per area of injured muscle. The size of each newly formed myofiber (C) has been measured based on the expression of the eMHC and laminin that allow to recognize and delineate these nascent myofibers. Results are shown as mean myofiber cross-sectional area (μm2).
In order to reproduce the physiological process of muscle regeneration that occurs in adult skeletal muscles in response to injury or disease, we performed an intramuscular injection of cardiotoxin into mouse hindlimb muscles. One week prior to the induction of the muscle injury, mice were given by oral gavage diffractaic acid (at 100 mg/kg body weight) vs. water control. Mice were treated once a day until the end of the experiment. To evaluate the efficiency of the muscle regeneration, muscles that have been previously injured were harvested 5 days after the injury and cryosections were prepared. Several myogenic markers were then measured. […]
Data are expressed as number of cells per area of injured muscle. The size of each newly formed myofiber (FIG. 10C) has been measured based on the expression of the eMHC and laminin that allow to recognize and delineate these nascent myofibers. […]

Data on one molecule can be found in patent publication US20220184025A1, “NOVEL DEPSIDE DIMERIC COMPOUNDS FOR SKELETAL MUSCLE MODULATION, METHODS AND USES THEREOF” (SOCIETE DES PRODUITS NESTLE S.A., priority 2019, published 2022).

On to `COc1cc(C)c(C(=O)Oc2cc(C)c(C(=O)O)c(O)c2C)c(OC)c1C` [Diffractaic acid, Benzoic acid, 2,4-dimethoxy-3,6-dimethyl-, 4-carboxy-3-hydroxy-2,5-dimethylphenyl ester], for which the “in vivo muscle regeneration process” value was “able to promote the in vivo muscle regeneration process”.
